Earlier results in US20110190266A1, “5,6,6a,7,8,9-HEXAHYDRO-2H-PYRIDOPHTHALAZINONE INHIBITORS OF POLY(ADP-RIBOSE)POLYMERASE (PARP)” (priority 2010, published 2011).
Like-named read-outs stand apart in the source and are kept apart here.

What was measured:
CAPAN-1 cells = CAPAN-1 cells in DMEM supplemented with FCS (20% v/v), glutamine and antibiotics
PARP-1 = PARP-1 (Homo sapiens, UniProt P09874)
[1] = test system: BRCA2-deficient cell line V-C8; details: BRCA2-deficient V-C8 compared with the BRCA2 wild type control

Chain of PARP-1 (P09874 whole entry, species assumed): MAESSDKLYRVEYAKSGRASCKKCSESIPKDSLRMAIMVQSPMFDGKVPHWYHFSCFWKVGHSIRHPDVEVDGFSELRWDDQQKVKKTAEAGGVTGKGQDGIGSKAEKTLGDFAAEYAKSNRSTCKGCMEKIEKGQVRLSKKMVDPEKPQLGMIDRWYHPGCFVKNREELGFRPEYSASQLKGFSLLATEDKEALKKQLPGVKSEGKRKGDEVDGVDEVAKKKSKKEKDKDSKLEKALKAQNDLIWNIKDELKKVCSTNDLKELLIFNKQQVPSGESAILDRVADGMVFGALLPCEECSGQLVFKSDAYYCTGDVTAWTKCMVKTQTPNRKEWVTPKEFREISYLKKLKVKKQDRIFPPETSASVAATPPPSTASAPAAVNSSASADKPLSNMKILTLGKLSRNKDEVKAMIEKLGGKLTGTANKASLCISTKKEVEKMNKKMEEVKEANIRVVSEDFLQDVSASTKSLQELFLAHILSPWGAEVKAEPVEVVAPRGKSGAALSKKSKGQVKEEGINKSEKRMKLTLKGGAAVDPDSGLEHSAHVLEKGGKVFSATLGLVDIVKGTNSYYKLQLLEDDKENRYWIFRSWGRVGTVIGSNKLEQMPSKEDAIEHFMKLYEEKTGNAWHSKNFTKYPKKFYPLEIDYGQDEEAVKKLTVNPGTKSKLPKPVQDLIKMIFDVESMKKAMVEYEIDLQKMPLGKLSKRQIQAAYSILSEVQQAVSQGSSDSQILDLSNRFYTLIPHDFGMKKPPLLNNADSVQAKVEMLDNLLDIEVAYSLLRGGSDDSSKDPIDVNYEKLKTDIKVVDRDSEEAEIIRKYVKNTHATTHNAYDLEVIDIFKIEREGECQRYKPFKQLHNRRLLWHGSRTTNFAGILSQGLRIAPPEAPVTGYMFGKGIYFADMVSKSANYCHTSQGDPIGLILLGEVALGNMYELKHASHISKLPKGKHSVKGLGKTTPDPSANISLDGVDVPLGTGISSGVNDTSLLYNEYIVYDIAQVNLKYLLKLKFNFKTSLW

| SMILES | sensitivity to PARP inhibition in clonogenic survival assay (CAPAN-1 cells) | in vivo efficacy, tumor growth (BRCA2-deficient tumors) | Ki (PARP-1; PARP-1 inhibitor) [nM] | sensitivity in clonogenic survival assay [1] | Ki (PARP-1; moderately potent PARP-1 inhibitor) [nM] |
| --- | --- | --- | --- | --- | --- |
| O=C1CCC(=O)N1c1cc(Cc2n[nH]c(=O)c3ccccc23)ccc1F [KU0058684] | showing sensitivity | in vivo efficacy in blocking the growth of BRCA2-deficient tumors |  |  |  |
| CN(C)Cc1ccc(-c2nc3cccc4c3n2CCNC4=O)cc1 [AG14361] |  |  | 5 | exhibited sensitivity |  |
| Cc1nc2c(O)cccc2c(=O)[nH]1 [NU1025] |  |  |  | exhibited sensitivity | 50 |
